Like-named read-outs stand apart in the source and are kept apart here.
Columns and labels:
Format in all cases: in vivo, mice
[1] = test system: H-Meso-1 tumors; settings: G4 pemetrexed 100 mg/kg/day IP
Procedure: (§1) Female athymic nude mice (Harlan Sprague Dawley, Madison, Wis.) were utilized for all experiments. Animals were housed in ventilated rack caging with food and water ad libitum. The mice were acclimated for at least 5 days prior to tumor implantation.
(§2) The tumor model used in this study was H-Meso-1 cell line which is a human mesothelioma cell line obtained from the DTP, DCTD tumor repository. […] Cells were implanted SC into study mice using a 1 ml syringe with a 13G trocar: 5×10^6 cells/mouse in 0.2 ml 50% Matrigel/50% RPMI medium of H-Meso-1 without serum or antibiotics. Bacterial culture was taken on cells used to implant the study.
Treatments were initiated on DPI 6.
(§3) Tumor size measurements were recorded 2-3 times/week from the treatment initiation until the termination of the study.
(§4) Mean, standard deviation and standard error of the mean were determined for tumor volume for all animal groups at all assessments. Student's t test was performed on tumor volumes at each measurement day, including at the end of the study, to determine whether there were any statistically significant differences between combination treatment groups and single monotherapy treatment groups.

[2] = test system: CaLu-6 tumors
From the text: as §1
The tumor model used in this study was CaLu-6 cell line which is a human lung cell line obtained from the ATCC (Manassas, Va.). […] Cells from in vitro passage 10 were those implanted SC into study mice.
(§5) Treatments were initiated on DPI 9.
as §3, §4

[3] = test system: NCI-H460 tumors
From the text: as §1
The tumor model used in this study was NCI-H460 cell line which is a human lung cell line obtained from the ATCC (Manassas, Va.). […] Cells from in vitro passage 16 were those implanted SC into study mice.
Treatments were initiated on DPI 8.
as §3, §4

[4] = test system: NCI-H460 tumors; remark: listed apart in the source
Procedure: as §1
as §2, with “NCI-H460” for “H-Meso-1”, “NSCLC” for “mesothelioma”, “ATCC (Manassas, Va.).” for “DTP, DCTD tumor repository.”, “Cells from in vitro passage 7” for “Cells”
as §5, §3, §4

[5] = test system: SK-OV-3 tumors
From the text: Female athymic nude mice (Harlan Sprague Dawley, Madison, Wis.) were utilized for all experiments. Animals were housed in ventilated rack caging with food and water ad libitum. The mice were acclimated for at least 5 days prior to tumor implantation with tumor fragments.
The tumor model used in these studies was SK-OV-3 cell line, which was obtained from the ATCC (Manassas, Va.).
SK-OV-3 fragments were removed from donor animals and tissue was debrided of membrane and any hemorrhagic and necrotic areas and 3-4 mm^3 fragments, from in vivo passage 2, were implanted SC on the right flank of each animal, using a 13G trochar. Bacterial culture was taken on cells used to implant the study.
Treatments were initiated on DPI 14.
Tumor size measurements were recorded twice weekly from the treatment initiation until the termination of the study.
as §4

[6] = day 13, G3 pemetrexed 125 mg/kg/day IP
[7] = day 13, G4 pemetrexed 100 mg/kg/day IP
[8] = day 16, G3 pemetrexed 125 mg/kg/day IP
[9] = day 16, G4 pemetrexed 100 mg/kg/day IP
[10] = day 20, G3 pemetrexed 125 mg/kg/day IP
[11] = day 20, G4 pemetrexed 100 mg/kg/day IP
[12] = day 23, G3 pemetrexed 125 mg/kg/day IP
[13] = day 23, G4 pemetrexed 100 mg/kg/day IP
[14] = Bevacizumab […] IP, alone or with PM00104 0.9 mg/kg/day IV
[15] = PM00104 0.9 mg/kg/day IV and/or Bevacizumab 5 mg/kg/day IP
[16] = Bevacizumab […] IP, alone or with PM00104 0.90 mg/kg/day IV
[17] = PM00104 0.90 mg/kg/day IV and/or Bevacizumab 5 mg/kg/day IP

Nc1nc2[nH]cc(CCc3ccc(C(=O)N[C@@H](CCC(=O)O)C(=O)O)cc3)c2c(=O)[nH]1 [pemetrexed]
% T/C on day 6 [1]: 102.1% | % T/C on day 7 [1]: 100.2% | % T/C on day 9 [1]: 109.0% | % T/C on day 12 [1]: 105.7% | % T/C on day 14 [1]: 124.2% | % T/C on day 16 [1]: 128.6% | % T/C on day 19 [1]: 110.4% | % T/C on day 22 [1]: 100.8% | % T/C on day 26 [1]: 122.9% | % Inhibition ([1]; day 6): −2.1% | % Inhibition ([1]; day 7): −0.2% | % Inhibition ([1]; day 9): −9.0% | % Inhibition ([1]; day 12): −5.7% | % Inhibition ([1]; day 14): −24.2% | % Inhibition ([1]; day 16): −28.6% | % Inhibition ([1]; day 19): −10.4% | % Inhibition ([1]; day 22): −0.8% | % Inhibition ([1]; day 26): −22.9% | % Inhibition ([1]; day 29): −22.4% | % T/C on day 9 ([2]; G3 pemetrexed 125 mg/kg/day IP): 99.6% | % T/C on day 16 ([2]; G3 pemetrexed 125 mg/kg/day IP): 86.6% | % T/C on day 20 ([2]; G3 pemetrexed 125 mg/kg/day IP): 104.8% | % T/C on day 23 ([2]; G3 pemetrexed 125 mg/kg/day IP): 98.7% | % T/C on day 27 ([2]; G3 pemetrexed 125 mg/kg/day IP): 87.9% | % T/C on day 30 ([2]; G3 pemetrexed 125 mg/kg/day IP): 90.0% | % T/C on day 34 ([2]; G3 pemetrexed 125 mg/kg/day IP): 89.1% | % T/C on day 42 ([2]; G3 pemetrexed 125 mg/kg/day IP): 94.2% | % T/C on day 9 ([2]; G4 pemetrexed 100 mg/kg/day IP): 103.4% | % T/C on day 13 ([2]; G4 pemetrexed 100 mg/kg/day IP): 126.5% | % T/C on day 16 ([2]; G4 pemetrexed 100 mg/kg/day IP): 103.5% | % T/C on day 20 ([2]; G4 pemetrexed 100 mg/kg/day IP): 120.6% | % T/C on day 23 ([2]; G4 pemetrexed 100 mg/kg/day IP): 111.5% | % T/C on day 27 ([2]; G4 pemetrexed 100 mg/kg/day IP): 101.8% | % T/C on day 30 ([2]; G4 pemetrexed 100 mg/kg/day IP): 105.8% | % T/C on day 34 ([2]; G4 pemetrexed 100 mg/kg/day IP): 102.2% | % T/C on day 42 ([2]; G4 pemetrexed 100 mg/kg/day IP): 100.5% | % Inhibition ([2]; day 9, G3 pemetrexed 125 mg/kg/day IP): 0.4% | % Inhibition ([2]; day 9, G4 pemetrexed 100 mg/kg/day IP): −3.4% | % Inhibition [2, 6]: −16.6% | % Inhibition [2, 7]: −26.5% | % Inhibition [2, 8]: 13.4% | % Inhibition [2, 9]: −3.5% | % Inhibition [2, 10]: −4.8% | % Inhibition [2, 11]: −20.6% | % Inhibition [2, 12]: 1.3% | % Inhibition [2, 13]: −11.5% | % Inhibition ([2]; day 27, G3 pemetrexed 125 mg/kg/day IP): 12.1% | % Inhibition ([2]; day 27, G4 pemetrexed 100 mg/kg/day IP): −1.8% | % Inhibition ([2]; day 30, G3 pemetrexed 125 mg/kg/day IP): 10.0% | % Inhibition ([2]; day 30, G4 pemetrexed 100 mg/kg/day IP): −5.8% | % Inhibition ([2]; day 34, G3 pemetrexed 125 mg/kg/day IP): 10.9% | % Inhibition ([2]; day 34, G4 pemetrexed 100 mg/kg/day IP): −2.2% | % Inhibition ([2]; day 42, G3 pemetrexed 125 mg/kg/day IP): 5.8% | % Inhibition ([2]; day 42, G4 pemetrexed 100 mg/kg/day IP): −0.5% | % T/C on day 8 ([3]; G3 pemetrexed 125 mg/kg/day IP): 102.6% | % T/C on day 10 ([3]; G3 pemetrexed 125 mg/kg/day IP): 119.0% | % T/C on day 13 ([3]; G3 pemetrexed 125 mg/kg/day IP): 67.5% | % T/C on day 16 ([3]; G3 pemetrexed 125 mg/kg/day IP): 71.0% | % T/C on day 20 ([3]; G3 pemetrexed 125 mg/kg/day IP): 70.4% | % T/C on day 23 ([3]; G3 pemetrexed 125 mg/kg/day IP): 85.4% | % T/C on day 28 ([3]; G3 pemetrexed 125 mg/kg/day IP): 72.9% | % T/C on day 31 ([3]; G3 pemetrexed 125 mg/kg/day IP): 82.6% | % T/C on day 8 ([3]; G4 pemetrexed 100 mg/kg/day IP): 103.0% | % T/C on day 10 ([3]; G4 pemetrexed 100 mg/kg/day IP): 107.3% | % T/C on day 13 ([3]; G4 pemetrexed 100 mg/kg/day IP): 75.7% | % T/C on day 16 ([3]; G4 pemetrexed 100 mg/kg/day IP): 72.4% | % T/C on day 20 ([3]; G4 pemetrexed 100 mg/kg/day IP): 72.9% | % T/C on day 23 ([3]; G4 pemetrexed 100 mg/kg/day IP): 86.3% | % T/C on day 28 ([3]; G4 pemetrexed 100 mg/kg/day IP): 76.8% | % T/C on day 31 ([3]; G4 pemetrexed 100 mg/kg/day IP): 96.9% | % Inhibition ([3]; day 8, G3 pemetrexed 125 mg/kg/day IP): −2.6% | % Inhibition ([3]; day 8, G4 pemetrexed 100 mg/kg/day IP): −3.0% | % Inhibition ([3]; day 10, G3 pemetrexed 125 mg/kg/day IP): −19.0% | % Inhibition ([3]; day 10, G4 pemetrexed 100 mg/kg/day IP): −7.3% | % Inhibition [3, 6]: 32.5% | % Inhibition [3, 7]: 24.3% | % Inhibition [3, 8]: 29.0% | % Inhibition [3, 9]: 27.6% | % Inhibition [3, 10]: 29.6% | % Inhibition [3, 11]: 27.1% | % Inhibition [3, 12]: 14.6% | % Inhibition [3, 13]: 13.7% | % Inhibition ([3]; day 28, G3 pemetrexed 125 mg/kg/day IP): 27.1% | % Inhibition ([3]; day 28, G4 pemetrexed 100 mg/kg/day IP): 23.2% | % Inhibition ([3]; day 31, G3 pemetrexed 125 mg/kg/day IP): 17.4% | % Inhibition ([3]; day 31, G4 pemetrexed 100 mg/kg/day IP): 3.1%

bevacizumab
% T/C on day 9 [4, 14]: 99.4% | % T/C on day 13 [4, 14]: 81.7% | % T/C on day 16 [4, 14]: 74.3% | % T/C on day 21 [4, 14]: 59.7% | % T/C on day 24 [4, 14]: 52.0% | % T/C on day 27 [4, 14]: 26.9% | % T/C on day 30 [4, 14]: 43.3% | % T/C on day 38 [4, 14]: 96.8% | % T/C on day 41 [4, 14]: 104.7% | % T/C on day 9 [4, 15]: 102.1% | % T/C on day 13 [4, 15]: 91.3% | % T/C on day 16 [4, 15]: 87.6% | % T/C on day 21 [4, 15]: 74.2% | % T/C on day 24 [4, 15]: 68.3% | % T/C on day 27 [4, 15]: 38.7% | % T/C on day 30 [4, 15]: 43.7% | % T/C on day 14 [5, 16]: 100.5% | % T/C on day 17 [5, 16]: 85.0% | % T/C on day 21 [5, 16]: 61.0% | % T/C on day 24 [5, 16]: 48.4% | % T/C on day 29 [5, 16]: 32.1% | % T/C on day 32 [5, 16]: 29.6% | % T/C on day 36 [5, 16]: 40.3% | % T/C on day 43 [5, 16]: 48.7% | % T/C on day 50 [5, 16]: 47.5% | % T/C on day 57 [5, 16]: 70.0% | % T/C on day 14 [5, 17]: 100.2% | % T/C on day 17 [5, 17]: 76.6% | % T/C on day 21 [5, 17]: 64.0% | % T/C on day 24 [5, 17]: 42.6% | % T/C on day 29 [5, 17]: 28.0% | % T/C on day 32 [5, 17]: 25.8% | % T/C on day 36 [5, 17]: 30.7% | % T/C on day 43 [5, 17]: 43.8% | % T/C on day 50 [5, 17]: 42.5% | % T/C on day 57 [5, 17]: 46.1%

— patent US20110070232A1, “Combination Therapy with an Antitumor Alkaloid” (Pharma Mar, S.A., priority 2008, published 2011)
